Source: paper PMC2888647 (Journal of medicinal chemistry, 2009)

What was measured:
[1] = estimated; cited from earlier work
recombinant human sEH = target: T1, recombinant human sEH (Homo sapiens, UniProt P34913); type: biochemical; details: relative to compound 1
T1 sequence (P34913 1-555): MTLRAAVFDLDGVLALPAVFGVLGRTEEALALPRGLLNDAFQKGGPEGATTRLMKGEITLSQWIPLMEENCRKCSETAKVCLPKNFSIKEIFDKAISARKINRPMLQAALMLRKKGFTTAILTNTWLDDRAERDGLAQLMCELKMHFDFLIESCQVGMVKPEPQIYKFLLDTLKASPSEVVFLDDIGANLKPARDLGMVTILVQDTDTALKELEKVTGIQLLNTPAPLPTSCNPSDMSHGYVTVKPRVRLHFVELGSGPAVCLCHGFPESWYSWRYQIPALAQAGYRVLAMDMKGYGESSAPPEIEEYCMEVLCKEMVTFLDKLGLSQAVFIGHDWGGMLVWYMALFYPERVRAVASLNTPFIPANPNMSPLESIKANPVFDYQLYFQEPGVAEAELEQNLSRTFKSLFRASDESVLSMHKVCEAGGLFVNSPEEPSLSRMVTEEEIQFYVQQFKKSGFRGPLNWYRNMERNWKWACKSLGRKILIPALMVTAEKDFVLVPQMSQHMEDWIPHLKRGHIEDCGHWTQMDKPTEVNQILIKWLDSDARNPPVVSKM

## CCCCC[C@@H]1O[C@@H]1C/C=C\C/C=C\C/C=C\CCCC(=O)O [14,15-EET, cis-14,15-epoxyeicosa-5(Z),8(Z),11(Z)-trienoic acid]
[1]
  in vivo half-life: a few seconds to minutes

## CCCCCNC(=S)NCCCC/C=C\CCCCCCC(=O)O [Compd 5, 13-(3-n-Pentylthioureido)tridec-8(Z)-enoic acid]
Recombinant human sEH
  decline of sEHi, factor with respect to 1: 16
